# Source: patent publication US5873359A, “Methods and devices for treating pulmonary vasoconstriction and asthma” (The General Hospital Corporation, priority 1994, dated 1999)
# Experiments:
# [1] = system: pulmonary hypertension in ARDS; experiment: Inhaled NO versus i.v. prostacyclin in adult with ARDS (first subject); format: in vivo, human
# Description: First subject. The patient had suffered for three weeks from adult respiratory distress syndrome (ARDS) due to aspiration pneumonia. There was diffuse pulmonary edema and a large QVA /QT (30%). After 21 days of venovenous extracorporeal membrane oxygenator support (3 liters/min blood flow), the mean PAP was 55 mm Hg.
# The short term effects of inhaled nitric oxide were compared with those of i.v. prostacyclin (PGI2; 5ng/kg/min). Mean pulmonary arterial pressure (PAP), right ventricular ejection fraction (RVEF) and gas exchange variables were evaluated. RVEF was assessed by thermodilution, and gas exchange alterations were analyzed using the multiple inert gas elimination technique (MIGET). MIGET and RVEF date were obtained on two different occasions. Ventilator settings were tidal volume 6 ml/kg, respiratory rate 14/min, Fi O2 0.4-0.48 and 5 cm H2 O of PEEP (positive end expiratory pressure).
# airway resistance = experiment: Methacholine infusion alone (stability of bronchoconstrictor model); format: in vivo, Hartley strain guinea pigs; conditions: methacholine infusion (FIG. 13)
# Description: (§1) Male Hartley strain guinea pigs (300-440g body wt) were anesthetized with α-chloralose (50 mg/kg) and urethane (500 mg/kg) (Drazen et al., J. Appl. Physiol. 48:613-618, 1980). A tracheostomy was performed, and the animals were intubated with a tubing adaptor (ID 1.65 mm) and ventilated with a small animal ventilator (Harvard Apparatus, a division of Ealing Scientific, Natick, Mass.) at 8 ml/kg and 60 breaths/min. A jugular vein was cannulated for intravenous administration of drugs. The chest was opened by bilateral excision of a portion of the ribs anteriorly so that the lungs were exposed to atmospheric pressure (Shore and Drazen, J. Appl. Physiol. 67:2504-2511, 1989). A positive end expiratory pressure of 3-4 cmH2 O was provided.
# (§2) Guinea pigs were then placed inside a plethysmograph (Amdur and Mead, Am. J. Physiol. 192:363-368, 1958), that was connected to a large reservoir containing copper mesh to maintain the plethysmograph isothermal. Plethysmograph pressure was measured with a differential pressure transducer (Celesco, Canoga Park, Calif.); the opposite side of this transducer was connected to a similar reservoir. Pressure at the airway opening was measured from a side tap in the tracheal canula. Transpulmonary pressure was measured with a differential pressure transducer (Celesco) as the difference between airway opening pressure and the pressure inside the plethysmograph. […]
# [2] = system: persistent pulmonary hypertension of the newborn (PPHN); format: in vivo, human; conditions: standard dosage, infused, during nitric oxide
# Description: First subject. Through compassionate use, nitric oxide was administered to an infant suffering from persistent pulmonary hypertension and congenital heart disease. As a result of prolonged ventilation, absence of a preductal arterial blood sampling site, and the existence of the atrial-ventricular (AV) canal, the patient was not included in the PPHN study mentioned above.
# The patient was a 3225 gm, full term person who had been treated with extracorporeal membrane oxygenation (ECMO) because of the severity of their congenital heart disease and profound hypoxemia. They had been taken off ECMO and was being maintained intubated and ventilated in the newborn intensive care unit. They subsequently became progressively hypoxemic, as reflected in their post-ductal pulse oximetry (POX) values. By the time they were taken to the catheterization laboratory to confirm the existence of the A-V canal and to determine if some emergent cardiac surgery was needed, they were receiving maximal medical and ventilatory life support and remained dangerously hypoxemic. Under these circumstances, we were granted consent to treat the patient with nitric oxide.
# Upon arrival to the catheterization laboratory, the patient was extremely cyanotic. They were treated with fentanyl, oxygen, hyperventilation and intravenous fluid boluses to stabilize them prior to administering NO.
# We utilized a regulator to step-down the pressure of the NO into a blender, which allowed us to adjust the relative amounts of the 800 ppm NO/N2 and 100% N2 supplies. Treating the patient with pure oxygen, we increased the flow of N2 through a flow regulator into the inspiratory circuit of the breathing cicuit until the FI O2 was 0.9. This provided a 1:10 dilution of the nitrogen gas. We then used the blender to adjust the relative amounts of N2 and […] to provide 0 to 80 ppm of NO.
# [3] = system: methacholine bronchoconstriction; experiment: NO and terbutaline aerosol during methacholine infusion; format: in vivo, Hartley strain guinea pigs; conditions: NO gas before or after inhaled terbutaline
# Description: as §1, §2
# [4] = occasion #1, PGI2 5ng/kg/min i.v.
# [5] = occasion #2, PGI2 5ng/kg/min i.v.
smiles,measurement,setting,value
"CCCCC[C@H](O)/C=C/[C@@H]1[C@H]2C/C(=C/CCCC(=O)O)O[C@H]2C[C@H]1O [PGI2, prostacyclin, reference compound]",QVA /QT,"[1]; PGI2, i.v.",57%
same,PAP and RVEF,"[1]; inhaled NO and i.v. PGI2, text",lowered PAP and improved RVEF
same,MAP,[1]; [4],81 mm Hg
same,PAP,[1]; [4],46 mm Hg
same,PCWP,[1]; [4],12 mm Hg
same,PaO2,[1]; [4],74 torr
same,QA /QT,[1]; [4],57%
same,VD /VT,[1]; [4],51%
same,low VD /Q,[1]; [4],0%
same,MAP,[1]; [5],86 mm Hg
same,PAP,[1]; [5],42 mm Hg
same,PCWP,[1]; [5],14 mm Hg
same,PaO2,[1]; [5],81 torr
same,RVEF,[1]; [5],42%
CC(=O)OC(C)C[N+](C)(C)C (centres unmarked) [methacholine],airway resistance,airway resistance,stably increasing levels of airway resistance for up to one hour
"CCCCC[C@H](O)/C=C/[C@H]1[C@H](O)CC(=O)[C@@H]1CCCCCCC(=O)O [prostaglandin E1, reference compound]",effect of prostaglandin infusion on need for nitric oxide,[2],nitric oxide could not be discontinued without the return of dangerously low oxygen saturations
"CC(C)(C)NCC(O)c1cc(O)cc(O)c1 (centres unmarked) [terbutaline, reference compound]",bronchodilating effects of NO plus terbutaline,[3],additive
